Structures can show the parent of a compound that is named as a salt. Where two headings read alike, the source gives them in different places.
Tests used:
[1] = system: agitation in subjects suffering from schizophrenia
Source text: (§1) Another Key Objective of the study was to determine the reduction in the level of agitation, as determined by their PEC score, at the doses to achieve a RASS of −1.
(§2) Patients 5, 7, 8 and 9 received placebo.
(§3) CGI-I focused on the severity of agitation rather than the severity of the illness. • (4) After the infusion was stopped, the participants were judged for the suitability for discharge by the principal investigator or designee as witnessed by a return to their baseline level of alertness and awareness with no impairment in balance, gait, and reaction time as determined by the principal investigator or designee. Results (A) Efficacy Study RASS (Richmond Agitation-Sedation Scale)

[2] = system: subjects suffering from schizophrenia
Source text: as §1, §2, §3

[3] = system: acute agitation associated with schizophrenia, schizoaffective disorder or schizophreniform disorder; conditions: 2 hours post-dose
Method: PEC comprised 5 items associated with agitation: poor impulse control, tension, hostility, uncooperativeness, and excitement; each scored 1 (minimum) to 7 (maximum). The PEC, the sum of these 5 subscales, thus ranging from 5 to 35.
Efficacy Analyses: The primary efficacy endpoint of the study was the absolute change from baseline in PEC score at 120 mins (2 hours). The intent to treat population (ITT) was analyzed and consisted of all patients who took any study medication and who had both baseline and at least 1 efficacy assessment after dosing. Analyses were conducted using a restricted maximum likelihood repeated measures mixed model on change from baseline values with baseline as a covariate and timepoint, and its interaction with treatment groups as repeated measures using an unstructured covariance structure. Responder comparisons were made via Fisher's exact test.
There were 5 dose cohorts (20 μg, 60 μg, 80 μg, 120 μg and 180 μg) with 18 active patients (total of 90 patients) and 9 placebo patients (total of 45 patients) in each cohort. Active patients in each of the 5 dose cohorts were compared to placebo patients from all 5 cohorts (pooled placebo group).

[4] = Procedure: as §2
The level of dexmedetomidine in the plasma of patients was also measured over the time of infusion.

Structure (SMILES): Cc1cccc([C@H](C)c2cnc[nH]2)c1C [dexmedetomidine hydrochloride, (+) 4-(S)-[1-(2,3-dimethylphenyl)ethyl]-1H-imidazole]
- Patients (out of 10) in the treatment arm with agitation reduced to a PEC score of 7 or below ([1]; IV infusion): 9
- Subjects (of 10) with >=50% reduction in PEC score ([1]; IV route): 7
- PEC value after infusion start ([1]; Patient 1 (treatment arm), 0 Mins): 9
- PEC value after infusion start ([1]; Patient 1 (treatment arm), 15 Mins): 5
- PEC value after infusion start ([1]; Patient 2 (treatment arm), 0 Mins): 16
- PEC value after infusion start ([1]; Patient 2 (treatment arm), 15 Mins): 13
- PEC value after infusion start ([1]; Patient 2 (treatment arm), 30 Mins): 12
- PEC value after infusion start ([1]; Patient 2 (treatment arm), 45 Mins): 11
- PEC value after infusion start ([1]; Patient 2 (treatment arm), 60 Mins): 9
- PEC value after infusion start ([1]; Patient 2 (treatment arm), 75 Mins): 7
- PEC value after infusion start ([1]; Patient 3 (treatment arm), 0 Mins): 12
- PEC value after infusion start ([1]; Patient 3 (treatment arm), 15 Mins): 12
- PEC value after infusion start ([1]; Patient 3 (treatment arm), 30 Mins): 10
- PEC value after infusion start ([1]; Patient 3 (treatment arm), 45 Mins): 7
- PEC value after infusion start ([1]; Patient 3 (treatment arm), 60 Mins): 6
- PEC value after infusion start ([1]; Patient 4 (treatment arm), 0 Mins): 9
- PEC value after infusion start ([1]; Patient 4 (treatment arm), 15 Mins): 9
- PEC value after infusion start ([1]; Patient 4 (treatment arm), 30 Mins): 8
- PEC value after infusion start ([1]; Patient 4 (treatment arm), 45 Mins): 8
- PEC value after infusion start ([1]; Patient 4 (treatment arm), 60 Mins): 7
- PEC value after infusion start ([1]; Patient 4 (treatment arm), 75 Mins): 7
- PEC value after infusion start ([1]; Patient 4 (treatment arm), 90 Mins): 7
- PEC value after infusion start ([1]; Patient 4 (treatment arm), 105 Mins): 7
- PEC value after infusion start ([1]; Patient 4 (treatment arm), 120 Mins): 7
- PEC value after infusion start ([1]; Patient 4 (treatment arm), 135 Mins): 7
- PEC value after infusion start ([1]; Patient 11 (treatment arm), 0 Mins): 13
- PEC value after infusion start ([1]; Patient 11 (treatment arm), 15 Mins): 13
- PEC value after infusion start ([1]; Patient 11 (treatment arm), 30 Mins): 11
- PEC value after infusion start ([1]; Patient 11 (treatment arm), 45 Mins): 9
- PEC value after infusion start ([1]; Patient 11 (treatment arm), 60 Mins): 9
- PEC value after infusion start ([1]; Patient 11 (treatment arm), 75 Mins): 7
- PEC value after infusion start ([1]; Patient 12 (treatment arm), 0 Mins): 13
- PEC value after infusion start ([1]; Patient 12 (treatment arm), 15 Mins): 13
- PEC value after infusion start ([1]; Patient 12 (treatment arm), 30 Mins): 13
- PEC value after infusion start ([1]; Patient 12 (treatment arm), 45 Mins): 10
- PEC value after infusion start ([1]; Patient 12 (treatment arm), 60 Mins): 10
- PEC value after infusion start ([1]; Patient 12 (treatment arm), 75 Mins): 8
- PEC value after infusion start ([1]; Patient 12 (treatment arm), 90 Mins): 6
- PEC value after infusion start ([1]; Patient 12 (treatment arm), 105 Mins): 5
- PEC value after infusion start ([1]; Patient 14 (treatment arm), 0 Mins): 10
- PEC value after infusion start ([1]; Patient 14 (treatment arm), 15 Mins): 9
- PEC value after infusion start ([1]; Patient 14 (treatment arm), 30 Mins): 6
- PEC value after infusion start ([1]; Patient 14 (treatment arm), 45 Mins): 6
- PEC value after infusion start ([1]; Patient 14 (treatment arm), 60 Mins): 5
- PEC value after infusion start ([1]; Patient 14 (treatment arm), 75 Mins): 5
- PEC value after infusion start ([1]; Patient 16 (treatment arm), 0 Mins): 10
- PEC value after infusion start ([1]; Patient 16 (treatment arm), 15 Mins): 9
- PEC value after infusion start ([1]; Patient 16 (treatment arm), 30 Mins): 6
- PEC value after infusion start ([1]; Patient 16 (treatment arm), 45 Mins): 6
- PEC value after infusion start ([1]; Patient 16 (treatment arm), 60 Mins): 7
- PEC value after infusion start ([1]; Patient 16 (treatment arm), 75 Mins): 5
- PEC value after infusion start ([1]; Patient 17 (treatment arm), 0 Mins): 10
- PEC value after infusion start ([1]; Patient 17 (treatment arm), 15 Mins): 8
- PEC value after infusion start ([1]; Patient 17 (treatment arm), 30 Mins): 7
- PEC value after infusion start ([1]; Patient 17 (treatment arm), 45 Mins): 5
- Patients (out of 10) in the treatment arm who achieved a RASS score of at least −1 ([2]; IV infusion from 0.2 mcg/kg/hr rising 0.1 mcg/kg/hr every 30 minutes): 9
- RASS value after infusion start ([2]; Patient 1 (treatment arm), 0 minutes): 1
- RASS value after infusion start ([2]; Patient 1 (treatment arm), 15 minutes): −2
- RASS value after infusion start ([2]; Patient 2 (treatment arm), 0 minutes): 3
- RASS value after infusion start ([2]; Patient 2 (treatment arm), 30 minutes): 0
- RASS value after infusion start ([2]; Patient 2 (treatment arm), 60 minutes): 0
- RASS value after infusion start ([2]; Patient 2 (treatment arm), 75 minutes): −1
- RASS value after infusion start ([2]; Patient 3 (treatment arm), 0 minutes): 1
- RASS value after infusion start ([2]; Patient 3 (treatment arm), 30 minutes): 0
- RASS value after infusion start ([2]; Patient 3 (treatment arm), 45 minutes): 0
- RASS value after infusion start ([2]; Patient 3 (treatment arm), 60 minutes): −1
- RASS value after infusion start ([2]; Patient 4 (treatment arm), 0 minutes): 1
- RASS value after infusion start ([2]; Patient 4 (treatment arm), 30 minutes): 0
- RASS value after infusion start ([2]; Patient 4 (treatment arm), 60 minutes): 0
- RASS value after infusion start ([2]; Patient 4 (treatment arm), 90 minutes): 0
- RASS value after infusion start ([2]; Patient 4 (treatment arm), 120 minutes): 0
- RASS value after infusion start ([2]; Patient 4 (treatment arm), […]): 0
- RASS value after infusion start ([2]; Patient 11 (treatment arm), 0 minutes): 1
- RASS value after infusion start ([2]; Patient 11 (treatment arm), 30 minutes): 0
- RASS value after infusion start ([2]; Patient 11 (treatment arm), 60 minutes): 0
- RASS value after infusion start ([2]; Patient 11 (treatment arm), 75 minutes): −1
- RASS value after infusion start ([2]; Patient 12 (treatment arm), 0 minutes): 1
- RASS value after infusion start ([2]; Patient 12 (treatment arm), 30 minutes): 0
- RASS value after infusion start ([2]; Patient 12 (treatment arm), 60 minutes): 0
- RASS value after infusion start ([2]; Patient 12 (treatment arm), 90 minutes): 0
- RASS value after infusion start ([2]; Patient 12 (treatment arm), 120 minutes): −1
- RASS value after infusion start ([2]; Patient 14 (treatment arm), 0 minutes): 1
- RASS value after infusion start ([2]; Patient 14 (treatment arm), 30 minutes): 0
- RASS value after infusion start ([2]; Patient 14 (treatment arm), 60 minutes): 0
- RASS value after infusion start ([2]; Patient 14 (treatment arm), 75 minutes): −1
- RASS value after infusion start ([2]; Patient 16 (treatment arm), 0 minutes): 1
- RASS value after infusion start ([2]; Patient 16 (treatment arm), 30 minutes): 0
- RASS value after infusion start ([2]; Patient 16 (treatment arm), 60 minutes): 0
- RASS value after infusion start ([2]; Patient 16 (treatment arm), 75 minutes): −1
- RASS value after infusion start ([2]; Patient 17 (treatment arm), 0 minutes): 1
- RASS value after infusion start ([2]; Patient 17 (treatment arm), 30 minutes): 0
- RASS value after infusion start ([2]; Patient 17 (treatment arm), 45 minutes): −1
- RASS value after infusion start ([2]; Patient 18 (treatment arm), 0 minutes): 0
- RASS value after infusion start ([2]; Patient 18 (treatment arm), 15 minutes): −1
- PANSS-PEC Total Score, Change from baseline, mean (SD) ([3]; 80 μg): −7.3
- PANSS-PEC Total Score, Change from baseline, mean (SD) ([3]; 120 μg): −9.2
- PANSS-PEC Total Score, Change from baseline, mean (SD) ([3]; 180 μg): −10.8
- Plasma level concentration ([4]; Patient 1 (Treatment), 0 Mins): BLQ
- Plasma level concentration ([4]; Patient 1 (Treatment), 15 Mins): 0.02245 ng/mL
- Plasma level concentration ([4]; Patient 1 (Treatment), 30 Mins): 0.01472 ng/mL
- Plasma level concentration ([4]; Patient 2 (Treatment), 0 Mins): BLQ
- Plasma level concentration ([4]; Patient 2 (Treatment), 30 Mins): BLQ
- Plasma level concentration ([4]; Patient 3 (Treatment), 30 Mins): BLQ
- Plasma level concentration ([4]; Patient 3 (Treatment), 45 Mins): BLQ
- Plasma level concentration ([4]; Patient 4 (Treatment), 0 Mins): BLQ
- Plasma level concentration ([4]; Patient 4 (Treatment), 15 Mins): BLQ
- Plasma level concentration ([4]; Patient 4 (Treatment), 30 Mins): BLQ
- Plasma level concentration ([4]; Patient 4 (Treatment), 45 Mins): BLQ
- Plasma level concentration ([4]; Patient 4 (Treatment), 60 Mins): BLQ
- Plasma level concentration ([4]; Patient 4 (Treatment), 75 Mins): BLQ
- Plasma level concentration ([4]; Patient 4 (Treatment), 90 Mins): 0.0443 ng/mL
- Plasma level concentration ([4]; Patient 11 (Treatment), 0 Mins): BLQ
- Plasma level concentration ([4]; Patient 11 (Treatment), 15 Mins): 0.04101 ng/mL
- Plasma level concentration ([4]; Patient 11 (Treatment), 30 Mins): 0.06291 ng/mL
- Plasma level concentration ([4]; Patient 11 (Treatment), 45 Mins): 0.12407 ng/mL
- Plasma level concentration ([4]; Patient 11 (Treatment), 60 Mins): 0.15047 ng/mL
- Plasma level concentration ([4]; Patient 12 (Treatment), 0 Mins): BLQ
- Plasma level concentration ([4]; Patient 12 (Treatment), 15 Mins): BLQ
- Plasma level concentration ([4]; Patient 12 (Treatment), 30 Mins): 0.04487 ng/mL
- Plasma level concentration ([4]; Patient 12 (Treatment), 45 Mins): 0.05051 ng/mL
- Plasma level concentration ([4]; Patient 12 (Treatment), 60 Mins): 0.1086 ng/mL
- Plasma level concentration ([4]; Patient 12 (Treatment), 75 Mins): 0.15854 ng/mL
- Plasma level concentration ([4]; Patient 12 (Treatment), 90 Mins): 0.23783 ng/mL
- Plasma level concentration ([4]; Patient 12 (Treatment), 105 Mins): 0.2673 ng/mL
- Plasma level concentration ([4]; Patient 14 (Treatment), 0 Mins): BLQ
- Plasma level concentration ([4]; Patient 14 (Treatment), 15 Mins): BLQ
- Plasma level concentration ([4]; Patient 14 (Treatment), 30 Mins): 0.05266 ng/mL
- Plasma level concentration ([4]; Patient 14 (Treatment), 45 Mins): 0.04653 ng/mL
- Plasma level concentration ([4]; Patient 14 (Treatment), 60 Mins): 0.4063 ng/mL
- Plasma level concentration ([4]; Patient 16 (Treatment), 0 Mins): BLQ
- Plasma level concentration ([4]; Patient 16 (Treatment), 15 Mins): 0.00256 ng/mL
- Plasma level concentration ([4]; Patient 16 (Treatment), 30 Mins): 0.01559 ng/mL
- Plasma level concentration ([4]; Patient 16 (Treatment), 45 Mins): 0.04117 ng/mL
- Plasma level concentration ([4]; Patient 16 (Treatment), 60 Mins): 0.06788 ng/mL
- Plasma level concentration ([4]; Patient 16 (Treatment), 75 Mins): 0.07226 ng/mL
- Plasma level concentration ([4]; Patient 17 (Treatment), 0 Mins): BLQ
- Plasma level concentration ([4]; Patient 17 (Treatment), 15 Mins): 0.01587 ng/mL
- Plasma level concentration ([4]; Patient 17 (Treatment), 30 Mins): BLQ
- Plasma level concentration ([4]; Patient 17 (Treatment), 45 Mins): 0.03993 ng/mL
- Plasma level concentration ([4]; Patient 18 (Treatment), 0 Mins): BLQ
- Plasma level concentration ([4]; Patient 18 (Treatment), 15 Mins): 0.04836 ng/mL
- Plasma level concentration ([4]; Patient 18 (Treatment), 30 Mins): 0.05453 ng/mL
